Assay [1] has as its system NT2/D1 cells. Briefly: Cell-Titre Glo viable cell growth and survival, 3 day decitabine. Type of assay: cell-based. Particulars: NT2/D1. On the procedure: Indicated doses of decitabine were added fresh each day for three days to exponentially growing cultures. Viable cell growth and survival were measured. Data are normalized to no drug treatment. EC cells are NT2/D1, NT2D1/R1, 833K, 833KCP, and Tera-1. Data are the average of 3 experiments in biological duplicate except for MCF-7 cells, which were assayed twice. Error bars are standard deviation (S.D.).
Cell growth and viability of five EC cell lines (NT2/D1, NT2D1/R1, 833K, 833KCP, and Tera-1) were determined, including two cell lines that are cisplatin-resistant (NT2/D1-R1 and 833KCP). Three control somatic tumor cell lines were also tested (HCT116, MCF7 and U2OS). […] Viable cell growth and survival were measured using Cell-Titre Glo (Promega) assays. […] These higher values are similar to the values shown in FIG. 1 for somatic tumor cell lines (MCF7, U2OS and HCT116).
NT2/D1, NT2D1-R1, 833K, 833K-CP, Tera-1, U20S, and HCT116 cells were cultured in DMEM with 10% FBS supplemented with glutamine and antibiotics except for MCF7 cells that were cultured in F12-DMEM. The derivation of the NT2/D1-resistant NT2/D1-R1 cell line has been previously described (Curtin et al. 2001. Oncogene 20:2559-2569; Kerley-Hamilton et al. 2007. Biochim. Biophys. Acta 1769:209-219). Cells were treated with the indicated dosages of 5-azadeoxycytidine (5-aza-CdR) for 3 days. This drug was replenished each day. Cisplatin (Bristol Laboratories) treatments were performed at the concentrations and time points indicated. To assess cell proliferation and survival, CELL-TITRE GLO (Promega) assays were performed.
(§1) Cells were cultured in DMEM media (Gibco) with 10% FBS. Decitabine was added fresh each day. Lentiviral control cells and the stable shRNA DNMT3B knockdown cell line (NT2/D1-R1-sh84) were described previously (Beyrouthy et al. 2009. Cancer Res. 69:9360-9366). DNMT3B knockdown was greater than 90% as confirmed by western blot analysis. Cell proliferation and survival were assessed with the CELL-TITRE GLO assay (Promega). Cell cycle analysis with propidium iodine has been previously described (Kerley-Hamilton et al. 2005. Oncogene 24:6090-6100).

Assay [2] has as its system NT2/D1 cells. Briefly: Apoptosis by PARP cleavage and sub G1 DNA content. Type of assay: cell-based. The settings on record: cisplatin 0.5 μM; NT2/D1 versus NT2/D1-R1. How it is done:
as §1
(§2) SYBR green-based real-time PCR (Applied Biosystems) was employed using the ddCT method normalized to GAPDH. For western blot analysis cells were lysed in radioimmune precipitation buffer and separated by SDS-PAGE. Antibodies to actin (sc01615, Santa Cruz), 139-H2AX (Cell Signaling), PARP (c-2-10, Biomol International) and p53 (D0-1, Santa Cruz) were used.

The subject of another assay is NT2/D1-R1 cells. In words: Apoptosis by PARP cleavage and sub G1 DNA content. Type of assay: cell-based. The settings on record: cisplatin; cisplatin-resistant NT2/D1-R1. On the procedure: (§3) Importantly, decitabine-mediated H2AX activation also occurs in the presence of the caspase 3 inhibitor (Z-VAD-FMK) at concentrations that inhibit PARP cleavage.
as §1, §2

Assay [3] relates to phosphorylated H2AX in NT2/D1-R1 cells. Briefly: DNA damage by induction of phosphorylated H2AX (western blot). The class given is cell-based. The settings on record: cisplatin.
Description: as §3, §2
Background: In western blotting, separated proteins are transferred to a membrane and probed.

Assay [4] deals with NT2/D1 cells. Briefly: Gene expression microarray with PAM cluster analysis (Tables 1-5). Type of assay: cell-based, human. On the procedure:
The cisplatin treatment protocol has been previously described (Kerley-Hamilton et al. 2005. Oncogene 24:6090-6100).
The same effect was not observed in cells treated with cisplatin; gene expression levels were not dramatically altered in cisplatin-treated cells. […] The genes clustered into distinct patterns.
Next, partitioning around medoids (PAM) analysis was performed on the 1130 genes whose expression levels changed by 1.5-fold or greater as compared to control treatment. […] Changes in gene expression levels of representative genes for each cluster were confirmed in independent samples by real-time PCR (FIG. 10).
(§4) Expression analysis was performed on the […] HumanHT-12 v3 or […] HumanHT-12 v4 bead chip arrays ([…]) and scanned on the BeadArray Reader ([…]) according to manufacturer's instructions.

The next assay relates to NT2 cells. Briefly: Gene set enrichment analysis (GSEA) of microarray data (Table 6). Type of assay: cell-based, human. Particulars: Gene Sets Enriched in NT2 Cells with Cisplatin Treatment (0.5 μM for 3 days). On the procedure: Gene set enrichment analysis (GSEA) was performed.
as §4

`N.N.[Cl][Pt][Cl]` [cisplatin]: in the assay with NT2/D1 cells [1] (after 1 day of cisplatin treatment), the “effects on cell viability and proliferation” value is on record as “minimal”. Besides, in the assay on NT2/D1 cells [1] (by day two of cisplatin treatment), the “effects on cell viability and proliferation” value is “robust anti-proliferation and cell death effects”. Moreover, the “apoptotic responses (PARP cleavage, sub G1 DNA content)” value in the assay on NT2/D1 cells [2] was “induces these responses only in cisplatin-sensitive NT2/D1 cells”. Besides, the PARP cleavage entry in the assay on NT2/D1-R1 cells is reported as “does not induce PARP cleavage”. For the same molecule, the “induction of phospho-H2AX” value in assay [3] was “can induce phospho-H2AX”. Besides, the “Cluster 2: unique genes whose expression levels were increased only by cisplatin treatment” value in the assay on NT2/D1 cells [4] (0.5 μM cisplatin 6 hours, 24 hour recovery) was determined as 81 genes. For the same molecule, in the assay on NT2/D1 cells [4] (1.5-fold or greater), the “Cluster 3: genes upregulated by both decitabine treatment and cisplatin treatment” value is listed as 71 genes; the “Cluster 5: genes down-regulated by both decitabine treatment and cisplatin treatment” value is recorded as 88 genes. Besides, in the assay on NT2 cells, the “NES, AMIT_EGF_RESPONSE_120_MCF10A” value is given as −2.2779; the “NES, AMIT_EGF_RESPONSE_480_HELA” value is reported as −2.5999; the “NES, AMUNDSON_DNA_DAMAGE_RESPONSE_TP53” value is on record as −2.2828; the “NES, CONCANNON_APOPTOSIS_BY_EPOXOMICIN_UP” value is −2.2899. In the assay with NT2 cells, the “NES, DACOSTA_UV_RESPONSE_VIA_ERCC3_UP” value is on record as −2.3411; the “NES, INGA_TP53_TARGETS” value is recorded as −2.3095; the “NES, KANNAN_TP53_TARGETS_UP” value is −2.5961; the “NES, KERLEY_RESPONSE_TO_CISPLATIN_UP” value is given as −3.0393. Also, in the assay with NT2 cells, the “NES, SCHAVOLT_TARGETS_OF_TP53_AND_TP63” value was −2.4114 and the “NES, WEIGEL_OXIDATIVE_STRESS_RESPONSE” value is −2.3010.
